According to ChEMBL document CHEMBL1152350, “Identification of compounds exhibiting inhibitory activity toward the Pseudomonas tolaasii toxin tolaasin I using in silico docking calculations, NMR binding assays, and in vitro hemolytic activity assays” (Bioorg Med Chem Lett, 2009):
Activity calls are given as the source filed them. No cut-off for these calls is given here.

Columns and labels:
Pseudomonas tolaasii [1] = experiment: Suppression of Pseudomonas tolaasii tolaasin 1-induced hemolysis in rat erythrocytes at 10 to 100 uM; format: cell-based
Pseudomonas tolaasii [2] = experiment: Suppression of Pseudomonas tolaasii tolaasin 1-induced hemolysis in rat erythrocytes at >1 mM; format: cell-based
Pseudomonas tolaasii [3] = experiment: Binding affinity to Pseudomonas tolaasii tolaasin 1 at 1 mM by NMR spectroscopy
Pseudomonas tolaasii [4] = experiment: Suppression of Pseudomonas tolaasii tolaasin 1-induced hemolysis in rat erythrocytes; format: cell-based

**Q.** Which results are given for `CCCCCCCC/C=C\CCCCCCCC(=O)OC[C@@H](O)[C@@H](O)[C@H](O)[C@@H](O)CO`?
**A.** Activity (Pseudomonas tolaasii [1]): 40%; Activity (Pseudomonas tolaasii [2]): inactive; Activity (Pseudomonas tolaasii [3]): Active

**Q.** Which results are given for `Cc1[nH]c(=N)sc1C`?
**A.** Activity (Pseudomonas tolaasii [3]): inactive; Activity (Pseudomonas tolaasii [4]): inactive
